This is an account of results in publication PMC4556830, “The Effect of MGCD0103 on CYP450 Isoforms Activity of Rats by Cocktail Method” (BioMed Research International, 2015).

A short description of the data set: Pharmacokinetics of six cocktail probe drugs in rat plasma (UPLC-MS/MS) after 7-day MGCD0103 or saline. As to conditions: for Cmax / half-life: Sprague-Dawley, rat, po; for Cmax: C max; for difference for AUC, t 1/2 between high dosage group and control group: p > 0.05. As for the experimental part:
The compounds were analyzed by a UPLC-MS/MS with ACQUITY I-Class UPLC and a XEVO TQD triple quadrupole mass spectrometer that was equipped with an electrospray ionization (ESI) interface (Waters Corp., Milford, MA, USA). The UPLC system included a Sample Manager with Flow-Through Needle (SM-FTN) and a Binary Solvent Manager (BSM). Data acquisition and instrument control were performed on the MassLynx 4.1 software (Waters Corp., Milford, MA, USA).
The initial mobile phase consisted of 0.1% formic acid and acetonitrile with gradient elution at a flow rate of 0.4 mL/min and an injection volume of 2 μL. […] The total run time of the analysis was 3 min.
The mass spectrometric detection was performed in a positive mode. Nitrogen was used as the cone gas (50 L/h) and desolvation gas (1000 L/h). The mass conditions were set as follows: source temperature 150°C, capillary voltage 2.5 kV, and desolvation temperature 500°C.
Forty rats (220 ± 20 g) were randomly divided into four different dosages of MGCD0103 groups (Low group, Medium group, High group, and control group with 10 rats in each group). MGCD0103 was dissolved in corn oil as suspension at three different concentrations (20, 40, and 80 mg/mL). Three different MGCD0103 groups (Low group, Medium group, and High group) were respectively given MGCD0103 20, 40, and 80 mg/kg one time by intragastric administration at every morning and last for 7 days. Control group were given saline by same administration method.
100 μL of plasma was obtained from blood sample after centrifugation at 4000 g for 10 min. In a 1.5 mL centrifuge tube, 200 μL of acetonitrile (containing 50 ng/mL IS) was added into 100 μL of collected plasma sample. […] Then supernatant (2 μL) was injected into the UPLC-MS/MS system for analysis.
Concentration of plasma probe drugs versus time was analyzed by Version 3.0 Data Analysis System (Wenzhou Medical University, China). The main pharmacokinetic parameters of the MGCD0103 group and control group were analyzed by SPSS l8.0 statistical software.

Setting [1] is: Control group: saline i.g. 7 days (no MGCD0103), then probe 10 mg/kg (tolbutamide 1 mg/kg) i.g., rat plasma, mean ± SD, n = 10.
Setting [2] is: High group: MGCD0103 80 mg/kg i.g. 7 days, then probe 10 mg/kg (tolbutamide 1 mg/kg) i.g., rat plasma, mean ± SD, n = 10.
Setting [3] is: Low group: MGCD0103 20 mg/kg i.g. 7 days, then probe 10 mg/kg (tolbutamide 1 mg/kg) i.g., rat plasma, mean ± SD, n = 10.
The mark [4] stands for this setting: Medium group: MGCD0103 40 mg/kg i.g. 7 days, then probe 10 mg/kg (tolbutamide 1 mg/kg) i.g., rat plasma, mean ± SD, n = 10.
The mark [5] stands for this setting: high dosage MGCD0103 group vs control.
Where [6] appears, read: high dosage MGCD0103 group vs control, p < 0.05.

Consider `CC(NC(C)(C)C)C(=O)c1cccc(Cl)c1` (stereo not shown) [Bupropion], for which the “AUC(0–t)” value is reported as 144.8 ± 94.1 ng/mL∗h under setting [1], 218.2 ± 460.8 ng/mL∗h under setting [2], 282.5 ± 403.2 ng/mL∗h under setting [3] and 120.4 ± 45.1 ng/mL∗h under setting [4]. Further, the “AUC(0–∞)” value under setting [1] came out at 146.7 ± 95.1 ng/mL∗h, the “AUC(0–∞)” value under setting [2] amounted to 235.2 ± 502.8 ng/mL∗h, the “AUC(0–∞)” value under setting [3] turned out to be 324.2 ± 506.3 ng/mL∗h and the “AUC(0–∞)” value under setting [4] is reported as 122.3 ± 45.2 ng/mL∗h. For the setting “in vivo, 10 mg/kg”, the highest level (Cmax) was 0.157 ± 0.179 µg/mL. Moreover, for the setting “in vivo, 10 mg/kg, t 1/2”, the half-life (usually how long it takes for the measured level to halve) was 0.8 ± 0.4 h. Also, under setting [5], the “difference for AUC, t 1/2 between high dosage group and control group” value (“difference for AUC” below) is listed as “no significant difference”.
For `COCCc1ccc(OCC(O)CNC(C)C)cc1` (stereo not shown) [Metoprolol], the “AUC(0–t)” value was 709.2 ± 255.8 ng/mL∗h under setting [1], 1031.8 ± 1261.2 ng/mL∗h under setting [2], 698.1 ± 348.6 ng/mL∗h under setting [3] and 836.1 ± 499.8 ng/mL∗h under setting [4]. For the same compound, the “AUC(0–∞)” value worked out at 724.2 ± 255.8 ng/mL∗h under setting [1], 1046.4 ± 1258.4 ng/mL∗h under setting [2], 703.8 ± 351.6 ng/mL∗h under setting [3] and 843.7 ± 498.4 ng/mL∗h under setting [4]. The half-life (in vivo, t 1/2) is 0.8 ± 0.1 h. In addition, the “difference for AUC” value under setting [5] is recorded as “no significant difference”.
On to `COc1ccc2[nH]c([S+]([O-])Cc3ncc(C)c(OC)c3C)nc2c1` (stereo not shown) [Omeprazole], for which the “AUC(0–t)” value came out at 503.8 ± 199.4 ng/mL∗h under setting [1], 676.8 ± 1111.6 ng/mL∗h under setting [2], 700.1 ± 910.2 ng/mL∗h under setting [3] and 526.1 ± 251.2 ng/mL∗h under setting [4]. For the same compound, the “AUC(0–∞)” value worked out at 528.0 ± 190.0 ng/mL∗h under setting [1], 731.8 ± 1098.8 ng/mL∗h under setting [2], 704.9 ± 909.5 ng/mL∗h under setting [3] and 539.1 ± 252.5 ng/mL∗h under setting [4]. For the same compound, the CL turned out to be 21.2 ± 7.6 L/h/kg under setting [1], 31.8 ± 19.0 L/h/kg under setting [2], 29.1 ± 16.6 L/h/kg under setting [3] and 22.3 ± 10.0 L/h/kg under setting [4]. Moreover, the concentration (in vivo, 10 mg/kg) peaked (Cmax) at 0.556 ± 0.646 µg/mL. For the setting “plasma, 10 mg/kg, t 1/2, Control group: saline i.g. 7 days (no MGCD0103), then probe 10 mg/kg (tolbutamide 1 mg/kg) i.g., rat plasma, mean ± SD, n = 10”, this compound had a half-life of 1.4 ± 1 h. For the same compound, the “difference for AUC” value under setting [5] was “no significant difference”.
`CCOc1ccc(NC(C)=O)cc1` [Phenacetin]: the “AUC(0–t)” value by setting is: under setting [1], 3831.2 ± 2840.9 ng/mL∗h; under setting [2], 2869.8 ± 3189.9 ng/mL∗h; under setting [3], 2973.6 ± 1807.0 ng/mL∗h; under setting [4], 2910.1 ± 1758.5 ng/mL∗h. The “AUC(0–∞)” value runs as follows: under setting [1], 3833.6 ± 2839.3 ng/mL∗h; under setting [2], 2871.9 ± 3189.0 ng/mL∗h; under setting [3], 2975.9 ± 1806.6 ng/mL∗h; under setting [4], 2918.2 ± 1751.4 ng/mL∗h. The maximum concentration (Cmax) (commonly the maximum level reached in the sampled fluid or tissue) (in vivo, 10 mg/kg) was determined as 2.88 ± 1.63 µg/mL. Further, the half-life (in vivo, 10 mg/kg, t 1/2) was 0.6 ± 0.4 h. Further, under setting [5], the “difference for AUC” value was “no significant difference”.
Regarding `C[C@]12CC[C@H]3[C@@H](CCC4=CC(=O)CC[C@@]43C)[C@@H]1CC[C@@H]2O` [Testosterone], the “AUC(0–t)” value runs as follows: under setting [1], 85.9 ± 40.6 ng/mL∗h; under setting [2], 490.7 ± 1044.2 ng/mL∗h; under setting [3], 404.5 ± 908.2 ng/mL∗h; under setting [4], 81.3 ± 28.8 ng/mL∗h. Besides, the “AUC(0–∞)” value runs as follows: under setting [1], 89.9 ± 43.9 ng/mL∗h; under setting [2], 524.5 ± 1042.4 ng/mL∗h; under setting [3], 417.2 ± 927.8 ng/mL∗h; under setting [4], 106.5 ± 45.1 ng/mL∗h. The CL by setting is: under setting [1], 143.8 ± 89.6 L/h/kg; under setting [2], 64.9 ± 33.4^∗ L/h/kg; under setting [3], 104.8 ± 49.0 L/h/kg; under setting [4], 109.0 ± 43.8 L/h/kg. Further, the V is given as 161.1 ± 82.2 L/kg under setting [1], 254.0 ± 291.0 L/kg under setting [2], 259.1 ± 168.6 L/kg under setting [3] and 253.2 ± 204.3 L/kg under setting [4]. In addition, the Cmax by setting is: (in vivo, 10 mg/kg, Control group: saline i.g. 7 days (no MGCD0103), then probe 10 mg/kg (tolbutamide 1 mg/kg) i.g., rat plasma, mean ± SD, n = 10) 0.0881 ± 0.0542 µg/mL; (in vivo, 10 mg/kg, High group: MGCD0103 80 mg/kg i.g. 7 days, then probe 10 mg/kg (tolbutamide 1 mg/kg) i.g., rat plasma, mean ± SD, n = 10) 0.462 ± 1.03 µg/mL; (in vivo, 10 mg/kg, Low group: MGCD0103 20 mg/kg i.g. 7 days, then probe 10 mg/kg (tolbutamide 1 mg/kg) i.g., rat plasma, mean ± SD, n = 10) 0.302 ± 0.631 µg/mL; (in vivo, 10 mg/kg, Medium group: MGCD0103 40 mg/kg i.g. 7 days, then probe 10 mg/kg (tolbutamide 1 mg/kg) i.g., rat plasma, mean ± SD, n = 10) 0.0932 ± 0.0753 µg/mL. The half-life is, setting by setting: (in vivo, 10 mg/kg, t 1/2, Control group: saline i.g. 7 days (no MGCD0103), then probe 10 mg/kg (tolbutamide 1 mg/kg) i.g., rat plasma, mean ± SD, n = 10) 1 ± 0.6 h; (in vivo, 10 mg/kg, t 1/2, High group: MGCD0103 80 mg/kg i.g. 7 days, then probe 10 mg/kg (tolbutamide 1 mg/kg) i.g., rat plasma, mean ± SD, n = 10) 4 ± 7.1 h; (in vivo, 10 mg/kg, t 1/2, Low group: MGCD0103 20 mg/kg i.g. 7 days, then probe 10 mg/kg (tolbutamide 1 mg/kg) i.g., rat plasma, mean ± SD, n = 10) 1.7 ± 0.8 h; (in vivo, 10 mg/kg, t 1/2, Medium group: MGCD0103 40 mg/kg i.g. 7 days, then probe 10 mg/kg (tolbutamide 1 mg/kg) i.g., rat plasma, mean ± SD, n = 10) 2.2 ± 2.4 h. In addition, the “change of CL versus control group” value under setting [6] was “shortened”. Moreover, the “difference for AUC” value under setting [5] is “no significant difference”.
As for `CCCCNC(=O)NS(=O)(=O)c1ccc(C)cc1` [Tolbutamide], the “AUC(0–t)” value under setting [1] came out at 88701.2 ± 19274.8 ng/mL∗h, the “AUC(0–t)” value under setting [2] is reported as 64052.9 ± 15988.6^∗ ng/mL∗h, the “AUC(0–t)” value under setting [3] is recorded as 82724.8 ± 13265.9 ng/mL∗h and the “AUC(0–t)” value under setting [4] was determined as 72448.6 ± 14850.4 ng/mL∗h. For the same compound, the “AUC(0–∞)” value runs as follows: under setting [1], 89852.0 ± 19168.1 ng/mL∗h; under setting [2], 64353.2 ± 15998.9^∗ ng/mL∗h; under setting [3], 83176.9 ± 13264.2 ng/mL∗h; under setting [4], 72761.4 ± 14754.7 ng/mL∗h. This compound also came in with a V under setting [1] of 0.088 ± 0.019 L/kg, a V under setting [2] of 0.099 ± 0.020 L/kg, a V under setting [3] of 0.090 ± 0.014 L/kg and a V under setting [4] of 0.093 ± 0.010 L/kg. This compound also had a half-life (in vivo, t 1/2) of 5.2 ± 1.2 h. In addition, the “change of AUC(0–t) versus control group” value under setting [6] is “decreased”. The “change of CL versus control group” value under setting [6] is on record as “increased”.
